Measurements: patent publication US12329158B2, “Large-scale methods of uniformly coating packaging surfaces with a volatile antimicrobial to preserve food freshness” (AGROFRESH INC., priority 2013, dated 2025)
Values after ≈ are worked out from the molar mass of the structure shown. Like-named read-outs stand apart in the source and are kept apart here.

What was measured:
Assay type in all cases: cell-based
Botrytis cinerea [1] = experiment: Volatile MIC assay (Example 10); conditions: 72 h, read-out: MIC (mg/L) BOTRCI
Experimental: (§1) 12-Well (6.5 mL volume per well) microtiter plates are used for the in vitro inhibition assay for volatile antimicrobial compounds. A 3-mL volume of full-strength Potato Dextrose Agar (PDA) is added to each well. After cooling, 1 μL of 1×10^5 per mL Botrytis cinerea and Penicillium expansum spore suspension is spot-pipetted to the center of the agar. Plates are inoculated immediately prior to volatile fungicide treatment. A Whatman #1 filter disk (Cat. No. 1001-0155) is placed, in duplicate, on the underside of a polyethylene PCR plate sealing film. […] The headspace around the inoculum is then sealed inside the well by the film with the adhering disk containing the fungicide by inverting the plates over the treated disks and sealing to prevent any of the chemical from flaking from the disk and falling onto the inoculated agar. After 3 days of storage at 23° C., the cultures are evaluated for percent growth relative to control based on measurement of fungal colony diameter.

Penicillium expansum [2] = experiment: Volatile MIC assay (Example 10); conditions: 72 h, read-out: MIC (mg/L) PENIEX
Experimental: as §1

Alternaria alternata = experiment: Volatile MIC assay (Example 9); conditions: 72 h, headspace concentration, 3 days at 23 C, read-out: MIC (mg/L) ALTEAL
Experimental: (§2) A 3-mL volume of full-strength Potato Dextrose Agar (PDA) is added to each well. […] Plates are inoculated immediately prior to volatile fungicide treatment. A Whatman #1 filter disk (Cat. No. 1001-0155) is placed, in duplicate, on the underside of a polyethylene PCR plate sealing film. […] The acetone is permitted to evaporate for 5 minutes. The headspace around the inoculum is then sealed inside the well by the film with the adhering disk containing the fungicide by inverting the plates over the treated disks and sealing to prevent any of the chemical from flaking from the disk and falling onto the inoculated agar.

Botrytis cinerea [3] = experiment: Volatile MIC assay (Example 9); conditions: 72 h, headspace concentration, 3 days at 23 C, read-out: MIC (mg/L) BOTRCI
Experimental: as §2

Penicillium expansum [4] = experiment: Volatile MIC assay (Example 9); conditions: 72 h, headspace concentration, 3 days at 23 C, read-out: MIC (mg/L) PENIEX
Experimental: as §2

Monilinia fructicola = experiment: Volatile MIC assay (Example 9); conditions: 72 h, headspace concentration, 3 days at 23 C, read-out: MIC (mg/L) MONIFC
Experimental: as §2

B. cinerea = experiment: In vitro contact assay, amended agar (Example 24); conditions: Botrytis cinerea, 72 h, read-out: Contact MIC (mg/L) B. cinerea
Experimental: (§3) Contact assay: 6-well (16.5 mL volume per well) microtiter plates are used for an in vitro inhibition assay. […] A 7.5-mL volume of the amended media is added to each well of the microtiter plate. […] The plates are sealed with a clear film and incubated for 3 days at 23° C. After incubation, plates are evaluate for percent growth relative to acetone only control.

P. expansum = experiment: In vitro contact assay, amended agar (Example 24); conditions: Penicillium expansum, 72 h, read-out: Contact MIC (mg/L) P. expansum
Experimental: as §3

Botrytis cinerea [5] = experiment: In vitro volatile assay (Example 24); conditions: 72 h, headspace, 100% control, 3 days at 23 C, read-out: Volatile MIC (mg/L) B. cinerea
Experimental: (§4) Volatile assay: 12-well (6.5 mL volume per well) microtiter plates are used. A 3-mL volume of half strength PDA is added to each well. […] A Whatman #1 filter disk (Cat. No. 1001-0155) is placed, in duplicate, on the underside of a polyethylene PCR plate sealing film. […] The acetone is permitted to evaporate for 5 minutes. The headspace around the inoculum is then sealed inside the well by the film with the adhering disk containing the fungicide. Plates are inverted, placed over the treated disks, and sealed to prevent any of the chemical from flaking from the disk and falling onto the inoculated agar. […] Contact assay: 6-well (16.5 mL volume per well) microtiter plates are used for an in vitro inhibition assay. […] A 7.5-mL volume of the amended media is added to each well of the microtiter plate. […] The plates are sealed with a clear film and incubated for 3 days at 23° C. After incubation, plates are evaluate for percent growth relative to acetone only control.

Penicillium expansum [6] = experiment: In vitro volatile assay (Example 24); conditions: 72 h, headspace, 100% control, 3 days at 23 C, read-out: Volatile MIC (mg/L) P. expansum
Experimental: as §4

Botrytis cinerea [7] = experiment: In vitro inhibition assay for volatile fungicide, 12-well plates (Example 7); conditions: volatile; 14 days at 4 C
Experimental: For testing activity against fungi pathogens, an in vitro inhibition assay for volatile antimicrobial compounds is developed using 12-Well (7 milliliter (mL) volume per well) microtiter plates. A 3-mL volume of full-strength Potato Dextrose Agar (PDA) is added to each well. After cooling, 1 microliter (μL) of 1×10^6 per mL Botrytis cinerea spore suspension is spot pipetted to the center of the agar. For the first experiment, inoculated plates are allowed to germinate for 5 days at 4° C. For the second experiment, plates are inoculated immediately prior to volatile fungicide treatment. Small Whatman #1 filter disks (Cat. No. 1001-0155) are placed, in duplicate, on the underside of a polyethylene PCR plate sealing film.
The acetone is permitted to evaporate for 5 minutes. The headspace around the Botrytis cinerea inoculum is then sealed inside the well by the film with the adhering disk containing the fungicide. Plates are inverted, placed over the treated disks and sealed to prevent any of the chemical from flaking from the disk and falling onto the inoculated agar. After 14 days of storage at 4° C., cultures are evaluated for percent growth relative to control. […]

[8] = volatile treatment, 3 days at 23 C
[9] = amended agar, 100% control, 3 days at 23 C

| SMILES | MIC (Botrytis cinerea [1]; [8]) | MIC (Penicillium expansum [2]; [8]) | further results |
| --- | --- | --- | --- |
| NCCOB1OCc2ccccc21 [Compound 21] | 1.1 mg/L (≈ 6.21 µM) | 35.7 mg/L (≈ 202 µM) | – |
| CN(C)CCOB1OCc2ccccc21 [Compound 22] | 4.5 mg/L (≈ 21.9 µM) | 35.7 mg/L (≈ 174 µM) | – |
| CCCCOB1OCc2cc(F)ccc21 [Compound 30] | – | – | MIC (Alternaria alternata): 2.2 mg/L (≈ 10.6 µM); MIC (Botrytis cinerea [3]): 2.2 mg/L (≈ 10.6 µM); MIC (Penicillium expansum [4]): 8.9 mg/L (≈ 42.8 µM); MIC (Monilinia fructicola): 2.2 mg/L (≈ 10.6 µM) |
| NCCOB1OCc2cc(F)ccc21 [Compound 34] | – | – | MIC (Alternaria alternata): 2.2 mg/L (≈ 11.3 µM); MIC (Botrytis cinerea [3]): < 0.6 mg/L; MIC (Penicillium expansum [4]): 2.2 mg/L (≈ 11.3 µM); MIC (B. cinerea; [9]): 2 mg/L (≈ 10.3 µM); MIC (P. expansum; [9]): 0.4 mg/L (≈ 2.05 µM); MIC (Botrytis cinerea [5]): 0.6 mg/L (≈ 3.08 µM); MIC (Penicillium expansum [6]): 2.2 mg/L (≈ 11.3 µM) |
| COCCOB1OCc2cc(F)ccc21 [Compound 38] | 0.6 mg/L (≈ 2.86 µM) | 8.9 mg/L (≈ 42.4 µM) | – |
| COCCCOB1OCc2cc(F)ccc21 [Compound 39] | 0.6 mg/L (≈ 2.68 µM) | 8.9 mg/L (≈ 39.7 µM) | – |
| OCCOCCOCCOB1OCc2cc(F)ccc21 [Compound 55] | 4.5 mg/L (≈ 15.8 µM) | > 35.7 mg/L | – |
| OCCOCCOB1OCc2cc(F)ccc21 [Compound 62] | 2.2 mg/L (≈ 9.17 µM) | 8.9 mg/L (≈ 37.1 µM) | – |
| CN(C)CCCOB1OCc2cc(F)ccc21 [Compound 63] | 1.1 mg/L (≈ 4.64 µM) | 17.9 mg/L (≈ 75.5 µM) | – |
| NCCCOB1OCc2cc(F)ccc21 [Compound 64] | 1.1 mg/L (≈ 5.26 µM) | 8.9 mg/L (≈ 42.6 µM) | – |
| CN(CCO)CCOB1OCc2cc(F)ccc21 [Compound 72] | 35.7 mg/L (≈ 141 µM) | > 35.7 mg/L | – |
| OCCNCCOB1OCc2cc(F)ccc21 [Compound 73] | 35.7 mg/L (≈ 149 µM) | > 35.7 mg/L | – |
| CN(C)CCOB1OCc2cc(F)ccc21 [Compound 74] | 2.2 mg/L (≈ 9.86 µM) | 35.7 mg/L (≈ 160 µM) | – |
| OCCCCCCOB1OCc2cc(F)ccc21 [Compound 86] | 0.6 mg/L (≈ 2.38 µM) | 8.9 mg/L (≈ 35.3 µM) | – |
| CNCCOB1OCc2cc(F)ccc21 [Compound 87] | 0.6 mg/L (≈ 2.87 µM) | 8.9 mg/L (≈ 42.6 µM) | – |
| OB1OC(N2CCOCC2)c2ccccc21 (stereo not shown) [Compound 114] | 17.9 mg/L (≈ 81.7 µM) | > 35.7 mg/L | – |
| CC(C)(N)COB1OCc2cc(F)ccc21 [Compound 115] | 0.6 mg/L (≈ 2.69 µM) | 8.9 mg/L (≈ 39.9 µM) | – |
| Nc1ccccc1OB1OCc2cc(F)ccc21 [Compound 116] | 1.1 mg/L (≈ 4.53 µM) | 8.9 mg/L (≈ 36.6 µM) | – |

| SMILES | MIC (Botrytis cinerea [1]; [8]) | MIC (Penicillium expansum [2]; [8]) | further results |
| --- | --- | --- | --- |
| O[B@@-]1([NH2+]Cc2ccccc2)OCc2ccccc21 [Compound 121] | 4.5 mg/L (≈ 18.7 µM) | 17.9 mg/L (≈ 74.2 µM) | MIC (B. cinerea; [9]): 10 mg/L (≈ 41.5 µM); MIC (P. expansum; [9]): 10 mg/L (≈ 41.5 µM); MIC (Botrytis cinerea [5]): 4.5 mg/L (≈ 18.7 µM); MIC (Penicillium expansum [6]): 17.9 mg/L (≈ 74.2 µM) |
| C[Si](C)(C)OB1OCc2ccccc21 [Compound 122] | – | – | MIC (Botrytis cinerea [1]): 2.2 mg/L (≈ 10.7 µM) |
| OB1OCc2cc(Cl)ccc21 [Compound 124] | 4.5 mg/L (≈ 26.7 µM) | 8.9 mg/L (≈ 52.9 µM) | MIC (B. cinerea; [9]): 2 mg/L (≈ 11.9 µM); MIC (P. expansum; [9]): 2 mg/L (≈ 11.9 µM); MIC (Botrytis cinerea [5]): 4.5 mg/L (≈ 26.7 µM); MIC (Penicillium expansum [6]): 8.9 mg/L (≈ 52.9 µM) |
| Fc1ccc2c(c1)COB2c1ccccc1 [Compound 127] | 2.2 mg/L (≈ 10.4 µM) | 4.5 mg/L (≈ 21.2 µM) | – |
| C=CB1OCc2cc(F)ccc21 [Compound 129] | 4.5 mg/L (≈ 27.8 µM) | 8.9 mg/L (≈ 54.9 µM) | – |
| N#C[B-]1(O)OCc2cc(F)ccc21.[K+] (stereo not shown) [Compound 130] | – | – | MIC (Botrytis cinerea [1]): 1.1 mg/L; MIC (Penicillium expansum [2]): 4.5 mg/L; MIC (B. cinerea): 2 mg/L; MIC (P. expansum): 0.4 mg/L |
| N#C[B-]1(O)OCc2cc(F)ccc21.[Na+] (stereo not shown) [Compound 132] | – | – | MIC (B. cinerea; [9]): 2 mg/L; MIC (P. expansum; [9]): 2 mg/L; MIC (Botrytis cinerea [5]): 1.1 mg/L; MIC (Penicillium expansum [6]): 4.5 mg/L |
| Fc1ccc(B2OCc3cc(F)ccc32)cc1 [Compound 133] | 8.9 mg/L (≈ 38.7 µM) | 35.7 mg/L (≈ 155 µM) | – |
| Fc1cccc(B2OCc3cc(F)ccc32)c1 [Compound 134] | 17.9 mg/L (≈ 77.8 µM) | > 35.7 mg/L | – |
| COc1ccc(B2OCc3cc(F)ccc32)cc1 [Compound 135] | 17.9 mg/L (≈ 73.9 µM) | > 35.7 mg/L | MIC (B. cinerea; [9]): 2 mg/L (≈ 8.26 µM); MIC (P. expansum; [9]): 2 mg/L (≈ 8.26 µM); MIC (Botrytis cinerea [5]): 17.9 mg/L (≈ 73.9 µM); MIC (Penicillium expansum [6]): > 35.7 mg/L |
| COc1cccc(B2OCc3cc(F)ccc32)c1 [Compound 136] | 8.9 mg/L (≈ 36.8 µM) | > 35.7 mg/L | – |
| C=C(C)B1OCc2cc(F)ccc21 [Compound 137] | 0.3 mg/L (≈ 1.7 µM) | 1.1 mg/L (≈ 6.25 µM) | – |
| OB1OCc2ccc(F)cc21 [Compound 200] | – | – | MIC (Alternaria alternata): 7.3 mg/L (≈ 48 µM); MIC (Botrytis cinerea [3]): 10.6 mg/L (≈ 69.8 µM); MIC (Penicillium expansum [4]): 68.3 mg/L (≈ 450 µM); MIC (Monilinia fructicola): 6.3 mg/L (≈ 41.5 µM) |
| OB1OCc2c(F)cccc21 [Compound 202] | 35.7 mg/L (≈ 235 µM) | 143 mg/L (≈ 941 µM) | – |
| OB1OCc2cccc(F)c21 [Compound 203] | 8.9 mg/L (≈ 58.6 µM) | 143 mg/L (≈ 941 µM) | – |
| OB1OCc2cc(F)c(F)cc21 [Compound 204] | 8.9 mg/L (≈ 52.4 µM) | > 35.7 mg/L | – |
| OB1OCc2ccccc21 [Compound B2, 2-(hydroxymethyl)phenylboronic acid cyclic monoester] | – | – | Rate giving 100% in vitro inhibition of Botrytis cinerea (Botrytis cinerea [7]): 0.0078 mg/disk |
| Fc1ccc2c(c1)COB2OCCOB1OCc2cc(F)ccc21 [Compound B] | – | – | MIC (B. cinerea; [9]): 0.4 mg/L (≈ 1.21 µM); MIC (P. expansum; [9]): 2 mg/L (≈ 6.06 µM); MIC (Botrytis cinerea [5]): 0.6 mg/L (≈ 1.82 µM); MIC (Penicillium expansum [6]): 8.9 mg/L (≈ 27 µM) |
